From ChEMBL document CHEMBL6096702, “Discovery of a Novel p38α-MK2 Complex Inhibitor as a Potential Choice for Autoimmune Diseases” (J Med Chem, 2025)
Converted amounts (≈) assume the structure as drawn. The source made the active and inactive calls. The calls are words filed in the database; no cut-off is given here.

Tests used:
[1] = Clearance in male Sprague-Dawley rat at 1 mg/kg, iv measured after 24 hrs by LC-MS/MS analysis; type: ADME, organism-based; details: in vivo
Cytochrome P450 2C9 = Cytochrome P450 2C9 (Homo sapiens, UniProt P11712); test: Inhibition of CYP2C9 in human liver microsomes using tolbutamide as substrate in presence of NADP by LC-MS/MS analysis; type: ADME, Microsome
[2] = Half-life in female Lewis rat at 3 mg/kg, po measured after 24 hrs by LC-MS/MS analysis; type: ADME, organism-based; details: in vivo
Cytochrome P450 2C19 = Cytochrome P450 2C19 (Homo sapiens, UniProt P33261); test: Inhibition of CYP2C19 in human liver microsomes using mephenytoin as substrate in presence of NADP by LC-MS/MS analysis; type: ADME, Microsome
[3] = Inhibition of N-terminal GST-tagged wildtype human P38alpha (4 to 152 residues) extracted from Escherichia coli/GST-tagged MK2 (unknown origin) assessed as reduction in HSP27 phosphorylation incubated for 2 hrs in presence of ATP and HSP27-FITC peptide by fluorescence polarization based IMAP assay
[4] = Solubility of compound in PBS at pH 7.4 measured after 4 to 24 hrs by LC-MS analysis; type: physicochemical; details: time 4-24 hrs
[5] = MRT in male Beagle dog at 1 mg/kg, iv measured after 24 hrs by LC-MS/MS analysis; type: ADME, organism-based, Canis lupus familiaris; details: in vivo
[6] = AUC (0 to 24 hrs) in female Lewis rat at 3 mg/kg, po measured after 24 hrs by LC-MS/MS analysis; type: ADME, organism-based; details: in vivo
[7] = AUClast in male Beagle dog at 1 mg/kg, iv measured after 24 hrs by LC-MS/MS analysis; type: ADME, organism-based, Canis lupus familiaris; details: in vivo
Rattus norvegicus [8] = test: Antiarthritic activity in Mycobacterium tuberculosis H37R-induced female Lewis rat model of arthritis assessed as inhibition of IL-6 production at 0.3 to 1 mg/kg, po administered twice daily for 15 days starting from day 13 after adjuvant administration; type: functional, organism-based; details: dose 0.3-1 mg/kg, time 15.0 day
[9] = Half-life in male Sprague-Dawley rat at 1 mg/kg, iv measured after 24 hrs by LC-MS/MS analysis; type: ADME, organism-based; details: in vivo
[10] = biological target: Voltage-gated inwardly rectifying potassium channel KCNH2 (Homo sapiens, UniProt Q12809); test: Inhibition of human ERG in HEK293 cells; type: toxicity, cell-based
PBMC [11] = test: Inhibition of LPS-induced TNF-alpha production in human PBMC cells at 0.01 to 10000 nM preincubated with compound for 1 hrs followed by LPS addition and measured after 4 hrs; type: functional, cell-based; details: dose 0.01-10000 nM, time 5.0 hrs
Cytochrome P450 1A2 = biological target: T1, Cytochrome P450 1A2 (Homo sapiens, UniProt P05177); test: Inhibition of CYP1A2 in human liver microsomes using phenacetin as substrate in presence of NADP by LC-MS/MS analysis; type: ADME, Microsome
T1 sequence (P05177 whole entry): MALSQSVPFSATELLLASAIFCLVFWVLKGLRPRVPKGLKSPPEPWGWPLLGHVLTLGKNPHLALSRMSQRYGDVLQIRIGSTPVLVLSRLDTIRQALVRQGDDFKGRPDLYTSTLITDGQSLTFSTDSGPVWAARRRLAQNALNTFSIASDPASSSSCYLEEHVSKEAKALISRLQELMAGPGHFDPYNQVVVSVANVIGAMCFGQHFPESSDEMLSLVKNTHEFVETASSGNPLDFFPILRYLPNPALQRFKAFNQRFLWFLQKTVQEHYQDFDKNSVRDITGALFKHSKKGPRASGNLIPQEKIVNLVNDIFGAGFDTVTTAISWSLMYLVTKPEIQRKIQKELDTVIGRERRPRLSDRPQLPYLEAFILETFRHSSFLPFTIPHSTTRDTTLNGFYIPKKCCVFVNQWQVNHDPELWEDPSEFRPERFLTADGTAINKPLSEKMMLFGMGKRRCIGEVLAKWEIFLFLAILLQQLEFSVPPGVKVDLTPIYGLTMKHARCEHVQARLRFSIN

[12] = Inhibition of HSP27 phosphorylation in human THP-1 cells at 0.1 to 1000 nM preincubated with compounds followed by LPS addition for 30 mins; type: cell-based
[13] = Clearance in male Beagle dog at 1 mg/kg, iv measured after 24 hrs by LC-MS/MS analysis; type: ADME, organism-based, Canis lupus familiaris; details: in vivo
[14] = Oral bioavailability in male Sprague-Dawley rat at 2 mg/kg measured after 24 hrs by LC-MS/MS analysis; type: ADME, organism-based; details: in vivo
Cytochrome P450 2D6 = Cytochrome P450 2D6 (Homo sapiens, UniProt P10635); test: Inhibition of CYP2D6 in human liver microsomes using dextromethorphan as substrate in presence of NADP by LC-MS/MS analysis; type: ADME, Microsome
[15] = Volume of distribution at steady state in male Sprague-Dawley rat at 1 mg/kg, iv measured after 24 hrs by LC-MS/MS analysis; type: ADME, organism-based; details: in vivo, read-out: Vdss
[16] = Half-life in male Beagle dog at 1 mg/kg, iv measured after 24 hrs by LC-MS/MS analysis; type: ADME, organism-based, Canis lupus familiaris; details: in vivo
[17] = MRT in male Sprague-Dawley rat at 1 mg/kg, iv measured after 24 hrs by LC-MS/MS analysis; type: ADME, organism-based; details: in vivo
[18] = biological target: MAP kinase-activated protein kinase 2 (Homo sapiens) (UniProt P49137); test: Inhibition of LPS-induced MK2 phosphorylation in differentiated human THP-1 macrophage cells at 10 to 10000 nM preincubated with compound for 60 mins followed by LPS addition and measured after 30 mins by Western blot analysis; type: cell-based; details: dose 10-10000 nM, time 90.0 min
[19] = Cmax in female Lewis rat at 1 mg/kg, po measured after 24 hrs by LC-MS/MS analysis; type: ADME, organism-based; details: in vivo
[20] = AUClast in male Sprague-Dawley rat at 1 mg/kg, iv measured after 24 hrs by LC-MS/MS analysis; type: ADME, organism-based; details: in vivo
Rattus norvegicus [21] = test: Antiarthritic activity in Mycobacterium tuberculosis H37R-induced female Lewis rat model of arthritis at 0.3 mg/kg, po administered twice daily for 15 days starting from day 13 after adjuvant administration; type: functional, organism-based; details: time 15.0 day
[22] = Selectivity ratio of IC50 for inhibition of P38alpha/GST-tagged ATF2 (unknown origin) to IC50 for inhibition of N-terminal GST-tagged wildtype human P38alpha (4 to 152 residues) extracted from Escherichia coli/GST-tagged MK2 (unknown origin)
Rattus norvegicus [23] = test: Antiarthritic activity in Mycobacterium tuberculosis H37R-induced female Lewis rat model of arthritis assessed as reduction in paw inflammation at 0.3 to 1 mg/kg, po administered twice daily for 15 days starting from day 13 after adjuvant administration by micro-CT analysis; type: functional, organism-based; details: dose 0.3-1 mg/kg, time 15.0 day
[24] = Volume of distribution at steady state in male Beagle dog at 1 mg/kg, iv measured after 24 hrs by LC-MS/MS analysis; type: ADME, organism-based, Canis lupus familiaris; details: in vivo, read-out: Vdss
PBMC [25] = test: Inhibition of LPS-induced IL-8 production in human PBMC cells at 0.01 to 10000 nM preincubated with compound for 1 hrs followed by LPS addition and measured after 4 hrs; type: functional, cell-based; details: dose 0.01-10000 nM, time 5.0 hrs
[26] = Inhibition of P38alpha/GST-tagged ATF2 (unknown origin) assessed as reduction in ATF2 phosphorylation incubated for 30 mins in presence of ATP by TR-FRET assay; parameters: species or system Homo sapiens

Sequence of Cytochrome P450 2C9 (P11712 whole entry): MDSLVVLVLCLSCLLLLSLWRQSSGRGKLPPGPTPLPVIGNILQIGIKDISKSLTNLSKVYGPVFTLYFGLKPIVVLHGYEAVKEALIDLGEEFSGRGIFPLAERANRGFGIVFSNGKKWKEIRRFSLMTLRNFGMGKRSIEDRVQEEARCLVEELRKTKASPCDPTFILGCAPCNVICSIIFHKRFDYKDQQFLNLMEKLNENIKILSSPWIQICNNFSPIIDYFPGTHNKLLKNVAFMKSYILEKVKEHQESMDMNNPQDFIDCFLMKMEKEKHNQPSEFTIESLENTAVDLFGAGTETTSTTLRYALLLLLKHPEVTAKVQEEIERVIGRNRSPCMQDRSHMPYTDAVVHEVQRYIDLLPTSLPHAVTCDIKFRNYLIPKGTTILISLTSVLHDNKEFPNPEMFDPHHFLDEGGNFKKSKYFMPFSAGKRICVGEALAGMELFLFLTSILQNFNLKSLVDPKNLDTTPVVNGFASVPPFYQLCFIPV
Sequence of Cytochrome P450 2D6 (P10635 whole entry): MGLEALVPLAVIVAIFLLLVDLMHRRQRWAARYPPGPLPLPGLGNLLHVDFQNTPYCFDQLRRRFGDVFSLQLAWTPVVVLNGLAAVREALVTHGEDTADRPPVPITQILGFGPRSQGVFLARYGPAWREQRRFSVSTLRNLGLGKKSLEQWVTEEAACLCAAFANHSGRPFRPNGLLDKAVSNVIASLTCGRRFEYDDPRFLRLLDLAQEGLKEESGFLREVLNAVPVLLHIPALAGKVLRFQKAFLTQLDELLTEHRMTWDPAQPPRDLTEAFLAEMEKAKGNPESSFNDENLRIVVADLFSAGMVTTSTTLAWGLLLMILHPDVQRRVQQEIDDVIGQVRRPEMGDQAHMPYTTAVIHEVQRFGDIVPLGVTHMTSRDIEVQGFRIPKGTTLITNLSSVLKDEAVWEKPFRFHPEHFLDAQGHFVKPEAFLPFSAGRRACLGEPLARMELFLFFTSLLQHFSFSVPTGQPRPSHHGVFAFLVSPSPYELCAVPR
Sequence of MAP kinase-activated protein kinase 2 (Homo sapiens) (P49137 whole entry, looked up): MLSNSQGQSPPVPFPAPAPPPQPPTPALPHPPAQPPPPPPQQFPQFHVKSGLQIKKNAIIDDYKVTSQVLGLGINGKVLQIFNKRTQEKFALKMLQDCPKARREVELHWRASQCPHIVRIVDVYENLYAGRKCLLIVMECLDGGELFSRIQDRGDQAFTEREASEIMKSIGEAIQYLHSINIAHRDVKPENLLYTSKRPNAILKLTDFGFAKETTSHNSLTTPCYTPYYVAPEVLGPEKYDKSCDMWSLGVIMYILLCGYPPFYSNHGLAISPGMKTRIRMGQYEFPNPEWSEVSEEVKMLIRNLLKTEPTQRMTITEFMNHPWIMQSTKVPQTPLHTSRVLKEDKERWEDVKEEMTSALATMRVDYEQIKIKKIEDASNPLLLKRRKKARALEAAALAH
Sequence of Voltage-gated inwardly rectifying potassium channel KCNH2 (Q12809 whole entry): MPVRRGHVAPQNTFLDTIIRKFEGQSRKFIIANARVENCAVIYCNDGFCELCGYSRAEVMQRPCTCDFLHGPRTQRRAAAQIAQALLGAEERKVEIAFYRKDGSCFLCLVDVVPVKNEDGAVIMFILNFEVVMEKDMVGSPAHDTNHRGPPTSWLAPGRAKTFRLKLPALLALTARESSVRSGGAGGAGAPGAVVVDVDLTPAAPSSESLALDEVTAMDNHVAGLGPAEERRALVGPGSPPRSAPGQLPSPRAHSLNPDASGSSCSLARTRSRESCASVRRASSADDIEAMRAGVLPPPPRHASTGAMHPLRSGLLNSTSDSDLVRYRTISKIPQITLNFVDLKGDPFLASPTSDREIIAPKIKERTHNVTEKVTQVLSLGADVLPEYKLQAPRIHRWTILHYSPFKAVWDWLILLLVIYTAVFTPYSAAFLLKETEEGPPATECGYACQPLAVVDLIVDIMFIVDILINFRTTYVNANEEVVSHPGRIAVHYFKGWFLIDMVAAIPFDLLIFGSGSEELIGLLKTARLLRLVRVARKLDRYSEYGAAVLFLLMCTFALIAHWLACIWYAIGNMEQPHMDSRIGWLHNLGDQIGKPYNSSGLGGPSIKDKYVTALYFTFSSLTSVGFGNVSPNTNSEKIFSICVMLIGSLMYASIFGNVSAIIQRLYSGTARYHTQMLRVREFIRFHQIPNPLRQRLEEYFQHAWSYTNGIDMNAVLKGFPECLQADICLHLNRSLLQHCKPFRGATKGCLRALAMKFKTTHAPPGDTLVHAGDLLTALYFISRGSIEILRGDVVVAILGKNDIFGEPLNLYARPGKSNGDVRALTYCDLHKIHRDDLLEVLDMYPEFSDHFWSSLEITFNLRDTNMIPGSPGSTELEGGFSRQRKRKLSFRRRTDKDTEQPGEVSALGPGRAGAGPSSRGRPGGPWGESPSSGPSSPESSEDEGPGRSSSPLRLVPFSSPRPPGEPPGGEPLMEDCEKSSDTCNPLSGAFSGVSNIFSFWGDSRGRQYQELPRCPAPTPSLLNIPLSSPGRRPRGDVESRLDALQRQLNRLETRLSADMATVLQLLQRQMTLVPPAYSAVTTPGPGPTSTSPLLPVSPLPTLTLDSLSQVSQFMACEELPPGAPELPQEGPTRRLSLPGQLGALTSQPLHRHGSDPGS
Sequence of Cytochrome P450 2C19 (P33261 whole entry, the tested form may be a part): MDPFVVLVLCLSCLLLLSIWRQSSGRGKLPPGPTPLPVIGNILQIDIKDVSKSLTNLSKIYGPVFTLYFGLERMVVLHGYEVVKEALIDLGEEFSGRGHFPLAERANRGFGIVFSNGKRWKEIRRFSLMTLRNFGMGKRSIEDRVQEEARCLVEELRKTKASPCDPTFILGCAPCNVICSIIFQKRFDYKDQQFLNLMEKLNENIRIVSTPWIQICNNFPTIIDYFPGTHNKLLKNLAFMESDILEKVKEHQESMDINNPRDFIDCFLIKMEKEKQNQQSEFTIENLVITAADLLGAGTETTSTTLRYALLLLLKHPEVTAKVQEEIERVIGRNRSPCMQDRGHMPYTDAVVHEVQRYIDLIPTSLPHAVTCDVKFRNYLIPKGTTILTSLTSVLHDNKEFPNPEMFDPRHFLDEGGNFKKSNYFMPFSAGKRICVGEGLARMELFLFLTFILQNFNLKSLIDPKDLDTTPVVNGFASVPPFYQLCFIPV

Q: Which results are given for `Cc1cnc(-c2ccnc(C(C)(C)O)n2)c(F)c1-n1c(C)cc(O[C@@H](C)c2ncc(F)cc2F)c(C)c1=O`?
A: clearance [1]: 9.6 mL/min/kg; IC50 (Cytochrome P450 2C9): > 40000 nM; half-life [2]: 3.5 h; IC50 (Cytochrome P450 2C19): > 40000 nM; IC50 [3]: 5 nM; solubility [4]: 88.3 µg/mL (≈ 168 µM); MRT [5]: 2.9 h; AUC(0-t) at 24 h [6]: 6480 ng·h/mL; AUC(0-t) at 24 h [7]: 3750 ng·h/mL; Activity (Rattus norvegicus [8]): Active; half-life [9]: 2.8 h; IC50 [10]: > 30000 nM; inhibition (PBMC [11]): Active; IC50 (Cytochrome P450 1A2): > 40000 nM; IC50 [12]: 1 nM; clearance [13]: 4.5 mL/min/kg; bioavailability [14]: 121%; IC50 (Cytochrome P450 2D6): > 40000 nM; Vd [15]: 1.2 L/kg; half-life [16]: 2.9 h; MRT [17]: 2.2 h; inhibition [18]: Active; Cmax [19]: 299 ng/mL; AUC(0-t) at 24 h [20]: 1800 ng·h/mL; Activity (Rattus norvegicus [21]): Active; Significant Clinical Effect Observed; Ratio IC50 [22]: 263; Activity (Rattus norvegicus [23]): Active; Vd [24]: 0.8 L/kg; inhibition (PBMC [25]): Active; IC50 [26]: 1000 nM
